Measurements reported in patent US5066655A (priority 1989, dated 1991).
Blank lines part the entries; values can stand above or below the molecule they belong to.

Assays:
[1] = tested on: adenosine receptors (A1: heart rate; A2: blood pressure); experiment: In vivo test on heart rate, blood pressure and ECG in anesthetized rats; set-up: species or system rat
Excerpt: Drug injections were made intravenously through a jugular cannula.

[2] = tested on: A2 adenosine receptor (guinea pig taenia caecum); experiment: Antagonism of adenosine agonists in isolated guinea pig taenia caecum (contractile tone)
Description: Taenia from the guinea pig caecum were cut into lengths of 1.5-2 cm. The tissues were suspended in a 20 ml organ bath containing de Jalon's solution that was gassed with 95% O2 + 5% CO2 and maintained at 31° C. The resting tension was 1.5 g. The contractile response was measured isotonically.
(§1) The ability of the compounds to antagonize the effects of agonists was analyzed using modified Schild plots.

[3] = molecular target: T1, A1 adenosine receptor (guinea pig atrium) (Cavia porcellus, UniProt P47745); experiment: Antagonism of adenosine agonists in isolated guinea pig left atrium (force of contraction); details: for antagonism of adenosine agonists in atria: guinea pig atria, result in words
T1 construct: The left atria from male guinea pigs were isolated; from tissue; host or cells: left atria of male guinea pigs
T1 sequence (P47745 1-326): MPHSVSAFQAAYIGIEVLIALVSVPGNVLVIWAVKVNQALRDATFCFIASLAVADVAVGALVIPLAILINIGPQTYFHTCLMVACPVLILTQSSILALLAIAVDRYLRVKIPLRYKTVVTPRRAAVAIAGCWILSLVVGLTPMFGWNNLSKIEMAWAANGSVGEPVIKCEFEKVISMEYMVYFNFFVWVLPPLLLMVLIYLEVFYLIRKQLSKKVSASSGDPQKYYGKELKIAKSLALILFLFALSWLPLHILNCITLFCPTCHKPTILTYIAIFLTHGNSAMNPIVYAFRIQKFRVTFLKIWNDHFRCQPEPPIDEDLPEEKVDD
Description: The left atria from male guinea pigs were isolated, suspended between two punctate electrodes, and placed in a 20 ml organ bath that contained Krebs-Hensileit solution that was continuously gassed with 95% O2 + 5% CO2 and maintained at 31° C. The resting tension was one gram. Theatria were stimulated electrically at 1 hz, 1 ms duration pulses at supramaximal voltage. The force of contraction was recorded isometrically.
as §1

A1 receptors = molecular target: T2, A1 receptors (Rattus norvegicus, UniProt P25099); experiment: Activity at A1 adenosine receptors (overall, fat cells and brain membranes); assay type: biochemical; details: discussion, fat cell and brain data
T2 sequence (P25099 1-326): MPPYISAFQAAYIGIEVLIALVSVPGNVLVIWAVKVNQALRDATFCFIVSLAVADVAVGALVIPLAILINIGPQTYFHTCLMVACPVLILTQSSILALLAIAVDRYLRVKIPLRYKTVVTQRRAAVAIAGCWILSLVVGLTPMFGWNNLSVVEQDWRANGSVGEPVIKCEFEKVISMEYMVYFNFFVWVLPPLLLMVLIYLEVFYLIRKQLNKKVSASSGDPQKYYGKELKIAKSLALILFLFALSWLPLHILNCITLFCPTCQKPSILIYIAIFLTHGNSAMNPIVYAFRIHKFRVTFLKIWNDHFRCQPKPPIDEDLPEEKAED
Description: (§2) Human platelet, rat pheochromocytoma (PC12) cell, rat fat cell and rat cerebral cortex membranes were prepared as described (4,5,6). Adenylate cyclase activity and binding [^3 H]PIA to cerebral cortex membranes were determined essentially as described (4,5,6). KB values for the compounds were determined as described (4). […] EC50 and IC50 values for the agonists were obtained from the concentration-response curves by linear regression after logit-log transformation. KB values of the antagonists were calculated using the Schild equation KB =C/(CR-1), where C denotes the concentration of the competitor and CR the ratio of the EC50 and IC50 values in the presence and absence, respectively, of the competitor. IC50 of the compounds for inhibition of [^3 H]PIA binding to cerebral cortex membranes were transformed into Ki values as described (6).

[4] = molecular target: T3, A2 receptors of human platelets (Homo sapiens, UniProt P29274); experiment: Antagonism of NECA-induced stimulation of adenylate cyclase activity of human platelet membranes; assay type: biochemical; details: human platelet membranes, NECA-stimulated adenylate cyclase; result in words
Description: as §2
In these cells, A2 receptor-mediated stimulation of adenylate cyclase results in an inhibition of aggregation (5,7).

[5] = molecular target: T4, A1 receptors of rat fat cells (Rattus norvegicus, UniProt P25099); experiment: Antagonism of R-PIA-induced inhibition of rat fat cell adenylate cyclase activity; assay type: biochemical; details: rat fat cell membranes, result in words
T4 sequence (P25099 1-326): T2 sequence (P25099 1-326)
Description: as §2

[6] = tested on: A1 and A2 adenosine receptors; experiment: Activity at adenosine receptors, A1 versus A2 selectivity (overall); assay type: biochemical; details: in words
Description: as §2

A1 adenosine receptors = details: literature; cited from earlier work
[7] = molecular target: T3, A2 receptors of human platelets; details: cited from earlier work
[8] = tested on: A2 receptors of PC12 cells; details: cited from earlier work

T3 sequence (P29274 whole entry): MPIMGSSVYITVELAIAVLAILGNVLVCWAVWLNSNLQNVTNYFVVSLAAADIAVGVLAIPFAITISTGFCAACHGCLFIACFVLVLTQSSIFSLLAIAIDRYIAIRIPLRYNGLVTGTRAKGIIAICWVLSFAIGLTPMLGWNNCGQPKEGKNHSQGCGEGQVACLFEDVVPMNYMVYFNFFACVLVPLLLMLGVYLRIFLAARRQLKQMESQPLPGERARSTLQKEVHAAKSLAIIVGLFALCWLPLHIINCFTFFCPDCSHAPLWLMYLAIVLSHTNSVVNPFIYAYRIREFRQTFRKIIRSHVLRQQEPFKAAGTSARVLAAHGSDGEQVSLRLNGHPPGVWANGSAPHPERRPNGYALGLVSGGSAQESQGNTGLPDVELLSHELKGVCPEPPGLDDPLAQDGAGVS

- antagonism of adenosine agonists in atria [3]: competitive antagonists
- antagonism of adenosine agonists in atria ([3]; listed as Ex. 22): most potent antagonist
- Kb ([3]; read-out: Affinity constants (pKB) (converted)): 525 nM
Compound: Cn1cnc2c(N[C@H]3C[C@H]4CC[C@@H]3C4)ncnc21 (relative stereo) [Example 22, N^6-(endonorbornyl)-9-MA]
- cardioselectivity in vivo [1]: cardioselective adenosine receptor antagonist in vivo
- effect on adenosine-induced changes of blood pressure, heart rate and P-R interval ([1]; i.v.): attenuated the effects of subsequently administered adenosine on all parameters measured
- effect on adenosine-induced heart block ([1]; i.v., high doses of adenosine): substantially reduced
- effect on NECA action on the heart ([1]; i.v., prior administration): attenuated the effects of NECA on the heart
- effect on NECA-induced decrease in blood pressure ([1]; i.v., prior administration): minimally affecting the NECA-induced decrease in blood pressure
- antagonism of adenosine agonists in taenia caecum ([2]; guinea pig taenia caecum relaxation): did not competitively antagonize the effects of adenosine agonists
- sensitization of the tissue ([2]; guinea pig taenia caecum, high concentrations): some sensitization of the tissue

- antagonist potency at platelet A2 receptor [4]: more potent than 9-methyladenine itself
- receptor selectivity A1 versus A2 [6]: selective for receptors
Compound: Cn1cnc2c(NC3CCC3)ncnc21 [Example 3, N^6 -Cyclobutyl-9-MA]
- activity at A1 receptors, in words (A1 receptors): most potent of N^6 -substituted 9-methyladenines at A1 receptors
- antagonist potency at A1 receptors of fat cells [5]: more potent than the parent compound 9-methyladenine

- antagonist potency at platelet A2 receptor [4]: more potent than 9-methyladenine itself
- receptor selectivity A1 versus A2 [6]: selective for receptors
Compound: Cn1cnc2c(NC3CCCCC3)ncnc21 [Example 6, N^6 -Cyclohexyl-9-MA]
- activity at A1 receptors, in words (A1 receptors): most potent of N^6 -substituted 9-methyladenines at A1 receptors
- antagonist potency at A1 receptors of fat cells [5]: more potent than the parent compound 9-methyladenine

Compound: OC[C@H]1O[C@@H](n2cnc3c(NCc4ccccc4)ncnc32)[C@H](O)[C@@H]1O [N^6 -benzyladenosine]
- affinity/activity at A1 receptors, in words (A1 adenosine receptors): low activity
- agonist potency at platelet A2 receptors, in words [7]: more potent of the N^6 -substituted adenosines

Compound: OC[C@H]1O[C@@H](n2cnc3c(NC4CCC4)ncnc32)[C@H](O)[C@@H]1O [N^6 -cyclobutyl-]
- agonist potency at PC12 A2 receptors, in words [8]: more potent of the series
- agonist potency at platelet A2 receptors, in words [7]: more potent of the N^6 -substituted adenosines

Compound: OC[C@H]1O[C@@H](n2cnc3c(NC4CCCCC4)ncnc32)[C@H](O)[C@@H]1O [N^6 -cyclohexyl-]
- agonist potency at PC12 A2 receptors, in words [8]: more potent of the series

Compound: CNc1ncnc2c1ncn2[C@@H]1O[C@H](CO)[C@@H](O)[C@H]1O [N^6 -methyladenosine]
- affinity/activity at A1 receptors, in words (A1 adenosine receptors): low activity

Compound: COc1cc(CCNc2ncnc3c2ncn3[C@@H]2O[C@H](CO)[C@@H](O)[C@H]2O)cc(OC)c1OC [N^6-2-(3,4,5-trimethoxyphenylethyl)-]
- agonist potency at PC12 A2 receptors, in words [8]: more potent of the series

Compound: OC[C@H]1O[C@@H](n2cnc3c(NCCc4cccnc4)ncnc32)[C@H](O)[C@@H]1O [N^6-2-(3-pyridylethyl)-]
- agonist potency at PC12 A2 receptors, in words [8]: more potent of the series

Compound: OC[C@H]1O[C@@H](n2cnc3c(NCCc4ccsc4)ncnc32)[C@H](O)[C@@H]1O [N^6-2-(3-thienylethyl)-]
- agonist potency at platelet A2 receptors, in words [7]: more potent of the N^6 -substituted adenosines

Compound: OC[C@H]1O[C@@H](n2cnc3c(NCCc4ccccc4)ncnc32)[C@H](O)[C@@H]1O [N^6-2-phenethyl-]
- agonist potency at PC12 A2 receptors, in words [8]: more potent of the series

Compound: CC1(Nc2ncnc3c2ncn3[C@@H]2O[C@H](CO)[C@@H](O)[C@H]2O)CCCC1 [N^6-(1-methylcyclopentyl)adenosine]
- affinity/activity at A1 receptors, in words (A1 adenosine receptors): reduced compared to N^6 -cyclopentyladenosine

Compound: C[C@H](Cc1ccccc1)Nc1ncnc2c1ncn2[C@@H]1O[C@H](CO)[C@@H](O)[C@H]1O [R-PIA, N^6 -R-1-phenyl-2-propyladenosine]
- affinity/activity at A1 receptors, in words (A1 adenosine receptors): very high affinity for A1 adenosine receptors
- agonist potency at PC12 A2 receptors, in words [8]: more potent of the series
- agonist potency at platelet A2 receptors, in words [7]: more potent of the N^6 -substituted adenosines
